In patent US6486174B2, “Tetrahydroisoquinoline-3-carboxylic acid alkoxyguanidines as integrin antagonists” (3-Dimensional Pharmaceuticals, Inc., priority 2000, dated 2002):
Where a name gives a salt, the structure may show the parent alone.

Target: T1, human αvβ3 (Homo sapiens, UniProt P05106+P06756)
T1 construct: purchased Chemicon CC1019
Assay: αvβ3-vitronectin assay (ELISA, inhibition of biotinylated vitronectin binding)
Settings: plate-coated human αvβ3, biotinylated human vitronectin 0.5 μg/mL, room temperature; read-out: αvβ3 IC50 (Inhibition of the αvβ3-Vitronectin Interaction)
Description: The assay was based on the method of Niiya (Niiya, K., et al, Blood 70:475-483 (1987)). All the steps were performed at room temperature. Costar 9018 flat-bottom 96-well ELISA plates were coated overnight with 100 μL/well of 0.4 μg/mL human αvβ3 (Chemicon CC1019) in TS buffer (20 mM Tris-HCl pH 7.5, 150 mM NaCl, 1 mM CaCl2, 1 mM MgCl2, 1 mM MnCl2). Plates were blocked for 2 hours with 200 μL/well of TS buffer containing 1% BSA (TSB buffer), and washed 3 times with 200 μL/well of PBST buffer. Controls or test compound were mixed with 0.5 μg/mL of human vitronectin (Chemicon CC080) that had been biotinylated in-house with sulfo-NHS-LC-LC-biotin (Pierce 21338, 20:1 molar ratio), and 100 μL/well of these solutions (in TSB buffer) were incubated for 2 hours. The plate was then washed 5 times with PBST buffer, and 100 μL/well of 0.25 μg/mL NeutrAvidin-horseradish peroxidase conjugate (Pierce 31001) in TSB buffer was incubated for 1 hour. Following a 5-fold PBST buffer wash, the plate was developed by adding 100 μL/well of 0.67 mg o-phenylenediamine dihydrochloride per mL of 0.012% H2O2, 22 mM sodium citrate, 50 mM sodium phosphate, pH 5.0 at room temperature. The reaction was stopped with 50 μL/well of 2M H2SO4, and the absorbence at 492 nm was recorded. Percent (%) inhibition was calculated from the average of two separate determinations relative to buffer controls (no test compound added), and a four parameter fit (Marquardt, D. W., J. Soc. Indust. Appl. Math. 11:431-441 (1963)) was used to estimate the half maximal inhibition concentration (IC50).

T1 sequence (P06756 31-889 limits assumed): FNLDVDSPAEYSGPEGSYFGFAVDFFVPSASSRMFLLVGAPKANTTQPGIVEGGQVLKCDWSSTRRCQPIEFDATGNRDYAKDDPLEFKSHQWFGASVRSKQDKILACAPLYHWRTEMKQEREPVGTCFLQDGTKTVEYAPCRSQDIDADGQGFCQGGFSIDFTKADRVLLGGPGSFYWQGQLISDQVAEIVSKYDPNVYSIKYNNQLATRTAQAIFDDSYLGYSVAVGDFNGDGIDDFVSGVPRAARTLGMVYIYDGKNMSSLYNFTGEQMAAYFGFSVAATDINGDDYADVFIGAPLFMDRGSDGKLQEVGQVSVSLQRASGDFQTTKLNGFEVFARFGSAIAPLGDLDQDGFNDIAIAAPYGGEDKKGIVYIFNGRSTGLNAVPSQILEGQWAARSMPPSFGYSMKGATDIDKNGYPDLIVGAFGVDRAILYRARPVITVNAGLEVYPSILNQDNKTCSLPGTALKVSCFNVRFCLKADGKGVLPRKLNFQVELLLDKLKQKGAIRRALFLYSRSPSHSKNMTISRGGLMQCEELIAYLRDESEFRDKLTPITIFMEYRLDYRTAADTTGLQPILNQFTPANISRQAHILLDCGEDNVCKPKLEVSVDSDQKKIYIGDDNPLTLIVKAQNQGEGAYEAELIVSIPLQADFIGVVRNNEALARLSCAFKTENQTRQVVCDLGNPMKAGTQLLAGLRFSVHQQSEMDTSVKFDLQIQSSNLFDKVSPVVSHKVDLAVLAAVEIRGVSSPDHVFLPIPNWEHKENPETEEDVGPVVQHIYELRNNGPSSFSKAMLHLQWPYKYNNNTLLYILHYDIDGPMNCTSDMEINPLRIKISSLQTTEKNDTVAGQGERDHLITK
T1 sequence (P06756 891-1048 partner limits assumed): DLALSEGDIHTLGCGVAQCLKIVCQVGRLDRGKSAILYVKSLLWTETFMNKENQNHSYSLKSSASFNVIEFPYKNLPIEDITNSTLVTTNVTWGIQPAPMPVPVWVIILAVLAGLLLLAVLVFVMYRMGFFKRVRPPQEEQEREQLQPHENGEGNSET
T1 sequence (P05106 27-788): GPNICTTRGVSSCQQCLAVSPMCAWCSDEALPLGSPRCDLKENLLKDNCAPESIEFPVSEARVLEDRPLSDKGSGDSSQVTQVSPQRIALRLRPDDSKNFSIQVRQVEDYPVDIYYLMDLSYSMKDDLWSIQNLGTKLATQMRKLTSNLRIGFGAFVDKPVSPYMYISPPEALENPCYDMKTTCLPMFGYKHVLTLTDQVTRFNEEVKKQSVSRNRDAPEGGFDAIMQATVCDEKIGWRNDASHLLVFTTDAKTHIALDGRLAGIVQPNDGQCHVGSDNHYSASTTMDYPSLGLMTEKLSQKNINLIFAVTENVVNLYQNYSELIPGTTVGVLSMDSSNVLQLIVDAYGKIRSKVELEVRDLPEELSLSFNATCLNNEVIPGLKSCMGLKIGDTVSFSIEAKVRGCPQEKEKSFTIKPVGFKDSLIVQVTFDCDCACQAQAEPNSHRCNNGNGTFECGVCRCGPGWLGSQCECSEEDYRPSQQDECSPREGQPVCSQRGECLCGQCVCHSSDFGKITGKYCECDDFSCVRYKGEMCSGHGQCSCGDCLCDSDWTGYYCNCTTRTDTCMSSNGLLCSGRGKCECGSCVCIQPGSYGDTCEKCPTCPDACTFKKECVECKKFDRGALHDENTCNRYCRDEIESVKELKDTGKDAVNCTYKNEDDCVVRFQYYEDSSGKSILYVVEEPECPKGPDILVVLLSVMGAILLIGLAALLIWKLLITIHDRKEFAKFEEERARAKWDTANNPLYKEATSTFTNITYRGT

| IC50 [nM] | Compound |
| --- | --- |
| 1100 | N=C(N)NOCCCOc1ccc2c(c1)CN(S(=O)(=O)c1ccccc1)[C@H](C(=O)O)C2 [Example 2, (3S)-7-[3-(Amidinoaminooxy)propoxy]-2-(phenylsulfonyl)-1,2,3,4-tetrahydroisoquinoline-3-carboxylic Acid Trifluoroacetic Acid Salt] |
| 500 | N=C(N)NOCCCOc1ccc2c(c1)CN(S(=O)(=O)c1ccc3ccccc3c1)[C@H](C(=O)O)C2 [Example 3, (3S)-7-[3-(Amidinoaminooxy)propoxy]-2-(2-naphthylsulfonyl)-1,2,3,4-tetrahydroisoquinoline-3-carboxylic Acid Trifluoroacetic Acid Salt] |
| 73 | COc1ccc(OC)c(S(=O)(=O)N2Cc3cc(OCCCONC(=N)N)ccc3C[C@H]2C(=O)O)c1 [Example 1, (3S)-7-[3-(Amidinoaminooxy)propoxy]-2-[(2,5-dimethoxyphenyl)sulfonyl]-1,2,3,4-tetrahydroisoquinoline-3-carboxylic acid trifluoroacetic Acid Salt] |
